Common to all, as to experiment: NCI tumour cell line growth inhibition, 48 h
In experiment [1] the test system is 786-0 renal.
In experiment [2] the test system is HT29 colon.
Experiment [3] relates to M14 melanoma.
In experiment [4] the test system is SF-295 CNS.
The test system of experiment [5] is SW-620 colon.
Experiment [6] has as its system U251 CNS.
Experiment [7] relates to UACC-257 melanoma.
Experiment [8] relates to K-562 leukemia.
For experiment [9], the system named is SR leukemia.

The text below walks through data of PubChem BioAssay (NCI).

Several values for one entry are separate records, joined by “and”; a condition that tells them apart may be missing. Identical values can stand only once.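 All cell lines were grown in 96-well plates and treated with compound for 48 hours. The concentration for 50% growth inhibition is given as GI50. TGI denotes the concentration required for complete inhibition of growth.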 Some results are limits rather than exact numbers.

Turning to `Cc1ccc(NC(=O)OCC(COc2ccc(Cl)cc2Cl)OC(=O)Nc2ccc(C)cc2)cc1` (stereo not drawn), the TGI in [1], in [2], in experiment [3], in experiment [4], in experiment [5] and in [6] was greater than 100 µM throughout. In [7], the TGI was greater than 100 µM.
Take `CCCCCCCCCCCCCB(O)O`: the TGI in experiment [1], in experiment [2], in [3], in experiment [4], in experiment [5] and in experiment [6] was greater than 100 µM throughout. In experiment [7], the TGI is greater than 100 µM. In experiment [2], the GI50 was > 100 µM and 29.9 µM.
With `CC(=O)O[C@H]1CC2C=CC3C(CCC31)O2` (stereo partly drawn), the TGI in experiment [1], in [2], in experiment [8], in [3], in experiment [5] and in [6] was greater than 100 µM in each case.
For the molecule `C=C(CCCO)[C@@H]1CC[C@@](C)(O)[C@H]1C`, the TGI in experiment [1], in experiment [2], in experiment [8], in experiment [4], in experiment [9] and in experiment [5] was greater than 100 µM in each case. The TGI in experiment [6] and in [7] was greater than 100 µM each time.
Turning to `CC(C)C1N2CCCCC2[C@@H]2c3[nH]c4ccccc4c3CCN12` (stereo partly drawn), the TGI in experiment [1], in [2], in [8], in [3], in experiment [4] and in [5] was greater than 100 µM each time. Besides, the TGI in experiment [6] and in [7] was greater than 100 µM each time.
With `CC1CC[P+](c2ccccc2)(c2ccccc2)CC1`, the TGI in experiment [1], in [2], in experiment [8], in experiment [3], in experiment [4] and in [9] was greater than 100 µM each time. The TGI in [5], in experiment [6] and in experiment [7] was greater than 100 µM in each case.
Consider `COc1ccc2nc(NC(=O)C(=O)NNC(=O)c3ccncc3)sc2c1`, for which the TGI in experiment [1], in [2], in [8], in [3], in experiment [4] and in experiment [5] was greater than 100 µM throughout. The TGI in [6] and in experiment [7] was greater than 100 µM each time.
`C/C(=N\NC(=O)CC(=O)N(C(=O)c1ccc(Cl)cc1)c1ccc(C)cc1)c1ccccc1O`: the TGI in experiment [1], in [2], in [8], in experiment [3], in [4] and in experiment [5] was greater than 100 µM in each case. The TGI in experiment [6] and in experiment [7] was greater than 100 µM each time.
In the case of `COc1cccc(NC(=O)C(=O)C2C=CCS2(=O)=O)c1` (stereo not drawn), the TGI in [1], in [2], in [8], in experiment [3], in [4] and in experiment [9] was greater than 100 µM each time. For the same molecule, the TGI in experiment [5], in experiment [6] and in experiment [7] was greater than 100 µM in each case.
As for `Cc1ccc2nc(NC(=O)/C(=N\NC(=S)NN)C3C(=O)NC(=S)NC3=O)sc2c1`, the TGI in experiment [1], in experiment [2], in experiment [8], in experiment [3], in experiment [4] and in experiment [9] was greater than 100 µM throughout. Also, the TGI in [5], in experiment [6] and in [7] was greater than 100 µM in each case.
`COC[C@H](C)N=CN1CCc2ccccc2C1(Cc1ccccc1)Cc1ccccc1`: the TGI in experiment [1] was 30.3 µM; in experiment [2], 20.1 µM; in [8] it was 29.3 µM; in experiment [3] it was 22.7 µM; in experiment [4], 28.3 µM; in experiment [9] it was 42 µM. The TGI in experiment [5] was found to be 63.1 µM; in experiment [6] it was 26.9 µM; in [7] it was 28.3 µM.
Take `CCOC(=O)CNc1nnnn1C1OC(CO)C(O)C1O` (stereo not drawn): the TGI in experiment [1], in experiment [2], in [8], in [3], in experiment [4] and in experiment [5] was greater than 100 µM in each case. Further, the TGI in [6] and in experiment [7] was greater than 100 µM throughout.
In the case of `c1ccc2c(NCCCCCCNc3cccc4ccccc34)cccc2c1`, the TGI in experiment [1], in experiment [2], in experiment [8], in experiment [3], in [4] and in experiment [5] was greater than 100 µM each time. Besides, the TGI in experiment [6] and in experiment [7] was greater than 100 µM throughout.
Turning to `COc1c2c(cc3c1C(=O)Cc1ccc4c(c1CN(C)CC3)OCO4)OCO2`, the TGI in experiment [1], in experiment [2], in [8], in [3], in [4] and in experiment [9] was greater than 100 µM each time. In addition, the TGI in [5], in experiment [6] and in experiment [7] was greater than 100 µM in each case.
In the case of `c1ccc(N/N=C2\NN=C(c3ccccc3)CS2)cc1`, the TGI in experiment [1] was 33.6 µM; in experiment [2], 24 µM; in [8], 25.8 µM; in [3] it was 24.8 µM; in [4], 48.6 µM; in experiment [9], greater than 100 µM. Also, the figures for the TGI in experiment [5] and in [7] were 29.9 µM and 41.4 µM, respectively.
In the case of `COC(=O)/C(=N\NC(N)=O)C(C(=O)C=C(C)C)C(=O)C(=O)Nc1ccc(Cl)c(Cl)c1` (stereo not drawn), the TGI in experiment [1], in experiment [2], in experiment [8], in experiment [3], in experiment [4] and in experiment [9] was greater than 100 µM in each case. In addition, the TGI in experiment [5], in experiment [6] and in [7] was greater than 100 µM throughout.
With `O=C1C2C3C=CC(C2C(=O)N1CN1CCSCC1)C1C2C(=O)N(CN4CCSCC4)C(=O)C2C31` (stereo not drawn), the TGI in experiment [1] was greater than 79.2 µM; in experiment [2], greater than 100 µM; in experiment [8], greater than 100 µM; in experiment [3], greater than 100 µM; in experiment [4] it was greater than 100 µM; in experiment [9], greater than 100 µM. Also, the values for the TGI in [5], in [6] and in [7] were greater than 68.1 µM, greater than 100 µM and greater than 100 µM, respectively. Further, in [5], the GI50 is 50.5 µM.
With `[O-]c1c2c(nn1-c1ccc(Cl)cc1)c1ccccc1c[n+]2Cc1ccccc1`, the TGI in [1], in experiment [2], in experiment [8], in experiment [3], in [4] and in experiment [9] was greater than 100 µM each time. In addition, the TGI in experiment [5], in experiment [6] and in experiment [7] was greater than 100 µM in each case.
For the molecule `C1C[OH+]CC[OH+]CCNCC[OH+]CC[OH+]CCN1.Cl.[Cl-].[Pt+4]`, the GI50 in experiment [1], in experiment [2], in experiment [8], in experiment [3], in [4] and in experiment [5] was greater than 100 µM throughout. The GI50 in experiment [6] was greater than 100 µM. In addition, the TGI in [1], in experiment [2], in experiment [8], in experiment [3], in experiment [4] and in experiment [5] was greater than 100 µM each time. The same molecule registered a TGI in [6] greater than 100 µM.
For `CCN(CC)CCn1c2ccccc2c(=O)c2c(OC)ccc(OC)c21`, the TGI in experiment [1], in [2], in [8], in experiment [3], in [4] and in [9] was greater than 100 µM each time. The TGI in experiment [5], in [6] and in [7] was greater than 100 µM each time.
Turning to `COc1cc(/C=C2/C(=O)N(C(=O)OCc3ccccc3)C(Cc3cc(OC)c(OC)c(C)c3OC)C(=O)N2Cc2ccccc2)c(OC)c(C)c1OC` (stereo not drawn), the TGI in [1], in [2], in [8], in [3], in experiment [4] and in experiment [9] was greater than 100 µM throughout. The TGI in [5], in experiment [6] and in [7] was greater than 100 µM throughout.
`CCOCc1cc(=O)c2c(OC)cc3c(c2o1)CCC(C)(C)O3`: the TGI in [1], in experiment [2], in [8], in experiment [3], in experiment [4] and in experiment [9] was greater than 100 µM in each case. Besides, the TGI in experiment [5], in [6] and in [7] was greater than 100 µM in each case.
Turning to `Cc1ccccc1C1CC(c2ccccc2)=NO1` (stereo not drawn), the TGI in [1], in experiment [2], in experiment [8], in experiment [3], in [4] and in experiment [9] was greater than 100 µM each time. Further, the TGI in [5], in experiment [6] and in [7] was greater than 100 µM throughout.
Regarding `CCOC(=O)c1cccnc1C(OC(C)=O)OC(C)=O`, the TGI in experiment [1], in experiment [2], in experiment [8], in experiment [3], in [4] and in [9] was greater than 100 µM in each case. Moreover, the TGI in [5], in experiment [6] and in [7] was greater than 100 µM throughout.
Consider `O=c1cc(-c2ccccc2)[nH]c2cc(Cl)ccc12`, for which the TGI is 12.1 µM in experiment [1]; greater than 100 µM in experiment [2]; 21.2 µM in [8]; greater than 100 µM in [3]; 2.07 µM in experiment [4]; 16.9 µM in experiment [5]. Besides, the TGI was 3.91 µM in [6] and 83.2 µM in experiment [7].
With `CCOC(=O)C(C(O)c1ccc([N+](=O)[O-])cc1)P(=O)(OCC)OCC` (stereo not drawn), the TGI in experiment [1], in experiment [2], in experiment [8], in experiment [3], in experiment [4] and in experiment [5] was greater than 100 µM throughout. This molecule yielded a TGI in [6] greater than 100 µM.
On to `CC1C2CC=CC(=O)[C@@]2(C)CCC12OCCO2` (stereo partly drawn), for which the TGI in experiment [1], in experiment [2], in [8], in experiment [3], in experiment [4] and in [9] was greater than 100 µM in each case. The TGI in experiment [5], in experiment [6] and in [7] was greater than 100 µM in each case.
Turning to `CCOC1CC2OC(=O)C1C=C2C(=O)OC` (stereo not drawn), the TGI in experiment [1] is 75.9 µM; in experiment [2], greater than 100 µM; in [8], 83.3 µM; in experiment [3], 38.6 µM; in [4] it was greater than 100 µM; in experiment [5] it was 61.1 µM. Moreover, the TGI in experiment [6] is greater than 100 µM; in experiment [7], 74.2 µM.
For the molecule `COC(=O)C(/C(=N\NC(N)=S)C(=O)Nc1ccccc1[N+](=O)[O-])c1cnc2ccccc2n1` (stereo not drawn), the TGI in [1], in experiment [2], in [8], in [3], in [4] and in [9] was greater than 100 µM throughout. Moreover, the TGI in experiment [5], in experiment [6] and in experiment [7] was greater than 100 µM throughout.
As to `C=CCN(N=O)C(=O)NCCCCC(NC(C)=O)C(=O)NCc1ccccc1` (stereo not drawn), the TGI in experiment [1], in experiment [2], in experiment [8], in experiment [3], in [4] and in experiment [5] was greater than 100 µM in each case. The TGI in experiment [6] and in [7] was greater than 100 µM throughout.
